Experimental findings from US20230303540A1 (Merck Sharp & Dohme LLC, priority 2020, published 2023) are described below.

The target of the assay is GST-tagged truncated human mutant G2019S LRRK2 (Homo sapiens, UniProt Q5S007, G2019S). Briefly: LRRK2 G2019S Km ATP LanthaScreen assay. It counts as biochemical. Conditions: 134 μM ATP (Km ATP), LRRKtide substrate, mean IC50 values; read-out: LRRK2 pIC50 (converted). The method, then: Unless otherwise noted, all reactions are magnetically stirred. Unless otherwise noted, when diethyl ether is used in the experiments described below, it is Fisher ACS certified material and is stabilized with BHT. Unless otherwise noted, “concentrated” and/or “solvent removed under reduced pressure” means evaporating the solvent from a solution or mixture using a rotary evaporator or vacuum pump. Unless otherwise noted, flash chromatography is carried out on a Teledyne Isco (Lincoln, NE), Analogix (Burlington, WI), or Biotage (Stockholm, SWE) automated chromatography system using a commercially available cartridge as the column. Columns may be purchased from Teledyne Isco, Analogix, Biotage, Varian (Palo Alto, CA), or Supelco (Bellefonte, PA) and are usually filled with silica gel as the stationary phase. Reverse phase prep-HPLC conditions, where used, can be found at the end of each experimental section. Aqueous solutions were concentrated on a Genevac (Ipswich, ENG) or by freeze-drying/lyophilization. Unless otherwise noted, all LRRK2 pIC50 data presented in tables refers to the LRRK2 G2019S Km ATP LanthaScreen™ assay (Life Technologies Corp., Carlsbad, CA) that is described in the Biological Assay section.
The IC50 values reported herein were measured as follows.
Biological Assay: LRRK2 Km ATP LanthaScreen™ Assay
The LRRK2 kinase activity reported herein as IC50 values was determined with LanthaScreen™ technology from Life Technologies Corporation (Carlsbad, CA) using GST-tagged truncated human mutant G2019S LRRK2 in the presence of the fluorescein-labeled peptide substrate LRRKtide, also from Life Technologies. The data presented for the Km ATP LanthaScreen™ Assay represents mean IC50 values based on several test results and may have reasonable deviations depending on the specific conditions and reagents used. Assays were performed in the presence of 134 μM ATP (Km ATP). Upon completion, the assay was stopped and phosphorylated substrate detected with a terbium (Tb)-labeled anti-pERM antibody (cat. no. PV4898). The compound dose response was prepared by diluting a 10 mM stock of compound to a maximum concentration of 9.99 μM in 100% dimethylsulfoxide followed by custom fold serial dilution in dimethylsulfoxide nine times. Twenty nanoliters of each dilution was spotted via a Labcyte Echo onto a 384-well black-sided plate (Corning 3575) followed by 15 μl of a 1.25 nM enzyme solution in 1× assay buffer (50 mM Tris pH 8.5, 10 mM MgCl2, 0.01% Brij-35, 1 mM EGTA, 2 mM dithiothreitol, 0.05 mM sodium orthovanadate). Following a 15-minute incubation at room temperature, the kinase reaction was started with the addition of 5 μl of 400 nM fluorescein-labeled LRRKtide peptide substrate and 134 μM ATP solution in 1× assay buffer. The reaction was allowed to progress at ambient temperature for 90 minutes. The reaction was then stopped by the addition of 20 μl of TR-FRET Dilution Buffer (Life Technologies, Carlsbad, CA) containing 2 nM Tb-labeled anti-phospho LRRKtide antibody and 10 mM EDTA (Life Technologies, Carlsbad, CA). After an incubation of 1 hour at room temperature, the plate was read on an EnVision multimode plate reader (Perkin Elmer, Waltham, MA) with an excitation wavelength of 337 nm (Laser) and a reading emission at both 520 and 495 nm. Compound IC50s were interpolated from nonlinear regression best fits of the log of the final compound concentration, plotted as a function of the 520/495-nm emission ratio using Activity base. Abase uses a 4 parameter (4P) logistic fit based on the Levenberg-Marquardt algorithm.
On to `Cn1nc(Cl)cc1Nc1ncc2cc(Cl)c(N3CCN(C4(C)COCC4O)CC3)cc2n1` (stereo not drawn), for which the IC50 was 5.97 nM.

For `Cn1nc(Cl)cc1Nc1ncc2cc(Cl)c(N3CCN([C@@]4(C)COC[C@H]4O)CC3)cc2n1` (single isomer, unassigned), the IC50 is 5.97 nM.

`Cc1c(Nc2cc3cc(N4CCN([C@]5(C)COC[C@@H]5O)CC4)c(Cl)cc3cn2)cnn1C1CC1` (single isomer, unassigned) [Ex-1.1, (3R,4R) or (3S,4S) 4-(4-(7-chloro-3-((1-cyclopropyl-5-methyl-1H-pyrazol-4-yl)amino)isoquinolin-6-yl)piperazin-1-yl)-4-methyltetrahydrofuran-3-ol]: the IC50 was 0.716 nM.

Turning to `Cc1c(Nc2cc3cc(N4CCN([C@]5(C)COC[C@@H]5O)CC4)c(Cl)cc3cn2)cnn1C1CC1` (single isomer, unassigned) [Ex-1.2, (3R,4R) or (3S,4S) 4-(4-(7-chloro-3-((1-cyclopropyl-5-methyl-1H-pyrazol-4-yl)amino)isoquinolin-6-yl)piperazin-1-yl)-4-methyltetrahydrofuran-3-ol], the IC50 was 8.41 nM.

`Cc1c(Nc2ncc3cc(Cl)c(N4CCN(C5CCCC5C#N)CC4)cc3n2)cnn1C1CC1` (single isomer, unassigned) [Ex-1.6, (3S,4S or 3R,4R)-2-(4-{6-chloro-2-[(1-cyclopropyl-5-methyl-1H-pyrazol-4-yl)amino]quinazolin-7-yl}piperazin-1-yl)cyclopentane-1-carbonitrile]: the IC50 was 1.89 nM.

Take `Cc1c(Nc2ncc3cc(Cl)c(N4CCN(C5CCCC5C#N)CC4)cc3n2)cnn1C1CC1` (single isomer, unassigned) [Ex-1.7, (3S,4S or 3R,4R)-2-(4-{6-chloro-2-[(1-cyclopropyl-5-methyl-1H-pyrazol-4-yl)amino]quinazolin-7-yl}piperazin-1-yl)cyclopentane-1-carbonitrile]: the IC50 is 6.91 nM.

In the case of `CCn1ncc(Nc2ncc3ccc(N4CCCC4C)cc3n2)c1C` (single isomer, unassigned) [Ex-1.8, (S) or (R) N-(1-ethyl-5-methyl-1H-pyrazol-4-yl)-7-(2-methylpyrrolidin-1-yl)quinazolin-2-amine], the IC50 is 16 nM.

Turning to `CCn1ncc(Nc2ncc3ccc(N4CCCC4C)cc3n2)c1C` (single isomer, unassigned) [Ex-1.9, (S) or (R) N-(1-ethyl-5-methyl-1H-pyrazol-4-yl)-7-(2-methylpyrrolidin-1-yl)quinazolin-2-amine], the IC50 is 36.1 nM.

As to `CCn1ncc(Nc2ncc3ccc(N4CCC4C)cc3n2)c1C` (single isomer, unassigned) [Ex-1.10, (S) or (R) N-(1-ethyl-5-methyl-1H-pyrazol-4-yl)-7-(2-methylazetidin-1-yl)quinazolin-2-amine], the IC50 was 13.3 nM.

In the case of `CCn1ncc(Nc2ncc3ccc(N4CCC4C)cc3n2)c1C` (single isomer, unassigned) [Ex-1.11, (S) or (R) N-(1-ethyl-5-methyl-1H-pyrazol-4-yl)-7-(2-methylazetidin-1-yl)quinazolin-2-amine], the IC50 was 33.2 nM.

As to `CC1(N2CCN(c3cc4nc(Nc5cnn(C6CC6)c5Cl)ncc4cc3Cl)CC2)COCC1O` (single isomer, unassigned) [Ex-1.45, (3S,4S or 3R,4R)-4-(4-{6-chloro-2-[(5-chloro-1-cyclopropyl-1H-pyrazol-4-yl)amino]quinazolin-7-yl}piperazin-1-yl)-4-methyloxolan-3-ol], the IC50 was 21.3 nM.

With `CC1(N2CCN(c3cc4nc(Nc5cnn(C6CC6)c5Cl)ncc4cc3Cl)CC2)COCC1O` (single isomer, unassigned) [Ex-1.46, (3S,4S or 3R,4R)-4-(4-{6-chloro-2-[5-chloro-1-cyclopropyl-1H-pyrazol-4-yl)amino]quinazolin-7-yl}piperazin-1-yl)-4-methyloxolane-3-ol], the IC50 was 0.625 nM.

For `Cc1cc2cnc(Nc3cnn(C)c3C)nc2cc1N1CCN(C2(C)COCC2O)CC1` (single isomer, unassigned) [Ex-2.2, (3S,4S or 3R,4R)-4-(4-{2-[(1,5-dimethyl-1H-pyrazol-4-yl)amino]-6-methylquinazolin-7-yl}piperazin-1-yl)-4-methyloxolane-3-ol], the IC50 is 36 nM.

In the case of `Cc1cc2cnc(Nc3cnn(C)c3C)nc2cc1N1CCN(C2COCC2O)CC1` (single isomer, unassigned) [Ex-2.3, (3S,4S or 3R,4R)-4-(4-{2-[(1,5-dimethyl-1H-pyrazol-4-yl)amino]-6-methylquinazolin-7-yl}piperazin-1-yl)oxolan-3-ol], the IC50 is 1.77 nM.

Turning to `Cc1cc2cnc(Nc3cnn(C45CC(C4)C5)c3C)nc2cc1N1CCN(C2(C)CCOC2)CC1` (single isomer, unassigned) [Ex-2.4, (3S,4S or 3R,4R)-N-(1-(bicyclo[1.1.1]pentan-1-yl)-5-methyl-1H-pyrazol-4-yl)-6-methyl-7-(4-(3-methyltetrahydrofuran-3-yl)piperazin-1-yl)quinazolin-2-amine], the IC50 is 0.279 nM.

Regarding `COCC12CC(n3cc(Nc4ncc5cc(Cl)c(N6CCC7(CC6)COC(CO)C7)cc5n4)cn3)(C1)C2` (single isomer, unassigned) [Ex-3.16, (R) or (S)-{8-[6-chloro-2-({1-[3-(methoxymethyl)bicyclo[1.1.1]pentan-1-yl]-1H-pyrazol-4-yl}amino)quinazolin-7-yl]-2-oxa-8-azaspiro[4.5]decan-3-yl}methanol], the IC50 is 0.218 nM.

On to `COCC12CC(n3cc(Nc4ncc5cc(Cl)c(N6CCC7(CC6)COC(CO)C7)cc5n4)cn3)(C1)C2` (single isomer, unassigned) [Ex-3.17, (R) or (S)-{8-[6-chloro-2-({1-[3-(methoxymethyl)bicyclo[1.1.1]pentan-1-yl]-1H-pyrazol-4-yl}amino)quinazolin-7-yl]-2-oxa-8-azaspiro[4.5]decan-3-yl}methanol], for which the IC50 is 2.28 nM.

With `Cc1c(Nc2ncc3cc(Cl)c(N4CCN(C5(C)COCC5O)CC4)cc3n2)cnn1C` (single isomer, unassigned) [Ex-3.37, (3R,4R) or (3S,4S) 4-(4-{6-chloro-2-[(1,5-dimethyl-1H-pyrazol-4-yl)amino]quinazolin-7-yl}piperazin-1-yl)-4-methyloxolan-3-ol], the IC50 is 29.9 nM.

With `C[C@]1(O)[C@@H]2CC[C@H]1CN(c1cc3nc(Nc4cnn(C5CC5(F)F)c4Cl)ncc3cc1Cl)C2` (single isomer, unassigned) [Ex-3.41, (R) or (S) (8-syn)-3-(6-chloro-2-{[5-chloro-1-(2,2-difluorocyclopropyl)-1H-pyrazol-4-yl]amino}quinazolin-7-yl)-8-methyl-3-azabicyclo[3.2.1]octan-8-ol], the IC50 was 23 nM.

As to `CN(C)c1cc2nc(Nc3cnn(C4CC4(F)F)c3Cl)ncc2cc1Cl` (single isomer, unassigned) [Ex-3.42, (R) or (S) 6-chloro-N~2~-[5-chloro-1-(2,2-difluorocyclopropyl)-1H-pyrazol-4-yl]-N~7~,N~7~-dimethylquinazoline-2,7-diamine], the IC50 was 7.37 nM.

`Cc1c(Nc2ncc3cc(Cl)c(N4CCN(C5(C)COCC5O)CC4)cc3n2)cnn1C` (single isomer, unassigned) [Ex-3.43, (3R,4R) or (3S,4S) 4-(4-{6-chloro-2-[(1,5-dimethyl-1H-pyrazol-4-yl)amino]quinazolin-7-yl}piperazin-1-yl)-4-methyloxolan-3-ol]: the IC50 is 0.438 nM.
